This is an account of results in ChEMBL document CHEMBL4177635, “Discovery and structure-activity-relationship study of novel conformationally restricted indane analogues for mutant isocitric dehydrogenase 1 (IDH1) inhibitors” (Bioorg Med Chem Lett, 2017).

Data set [1] concerns the target Isocitrate dehydrogenase [NADP] cytoplasmic (Homo sapiens, UniProt O75874, R132H). Nature of the data set: Inhibition of IDH1 R132H mutant (unknown origin) using alpha-ketoglutarate as substrate after 60 mins by resazurin dye based fluorescence assay.
Data set [2] deals with Isocitrate dehydrogenase [NADP] cytoplasmic (Homo sapiens, UniProt O75874, R132C). Nature of the data set: Inhibition of IDH1 R132C mutant in human HT1080 cells assessed as reduction in 2-hydroxyglutarate production after 48 hrs by LC-MS/MS analysis. In kind it is cell-based.
Sequence of Isocitrate dehydrogenase [NADP] cytoplasmic (Homo sapiens, UniProt O75874, R132C) (O75874 2-414 R132C limits assumed): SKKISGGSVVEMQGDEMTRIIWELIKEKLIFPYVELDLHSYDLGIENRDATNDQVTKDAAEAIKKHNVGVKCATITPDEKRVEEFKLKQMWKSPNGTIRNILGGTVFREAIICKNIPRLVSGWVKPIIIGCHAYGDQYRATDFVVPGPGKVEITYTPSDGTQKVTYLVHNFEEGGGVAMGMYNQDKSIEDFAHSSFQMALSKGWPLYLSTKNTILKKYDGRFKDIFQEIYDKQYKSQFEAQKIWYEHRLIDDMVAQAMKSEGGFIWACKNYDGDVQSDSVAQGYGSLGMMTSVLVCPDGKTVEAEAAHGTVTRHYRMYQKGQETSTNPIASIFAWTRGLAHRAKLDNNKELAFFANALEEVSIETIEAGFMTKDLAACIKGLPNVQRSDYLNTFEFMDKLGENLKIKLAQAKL
Data set [3] is described as follows: Intrinsic clearance in mouse liver microsomes assessed per g protein at 1 uM by LC-MS/MS analysis. It is filed as ADME, microsome.
Data set [4] is described as follows: Intrinsic clearance in rat liver microsomes assessed per g protein at 1 uM by LC-MS/MS analysis. It is filed as ADME, microsome. (In general: Microsomes from liver hold many membrane-bound enzymes, among them those of drug oxidation.)
Data set [5] in a line: Clearance in ICR mouse at 1 mg/kg, iv by HPLC-MS analysis. In kind it is ADME, organism-based. Conditions: in vivo.
For data set [6], the system named is Mus musculus. In words: AUC in ICR mouse at 5 mg/kg, po by HPLC-MS analysis. In kind it is ADME, organism-based. Conditions: in vivo.
For data set [7], the species on record is Homo sapiens. Nature of the data set: Selectivity ratio of IC50 for IDH2 R140Q mutant (unknown origin) to IC50 for IDH2 R140Q mutant (unknown origin).
The nature of data set [8]: Volume of distribution at steady state in ICR mouse at 1 mg/kg, iv or 5 mg/kg, po by HPLC-MS analysis. Conditions: in vivo, read-out: Vdss. In kind it is ADME, organism-based.
The subject of data set [9] is Mus musculus. Nature of the data set: Oral bioavailability in ICR mouse at 5 mg/kg by HPLC-MS analysis. It is filed as ADME, organism-based. To be noted: in vivo.
The target in data set [10] is Isocitrate dehydrogenase [NADP] cytoplasmic (Homo sapiens, UniProt O75874). In words: Inhibition of IDH1 (unknown origin) using isocitrate as substrate after 60 mins by resazurin dye based fluorescence assay. In general terms: The colour change of resazurin is a common sign of viable cells or microbes.
Sequence of Isocitrate dehydrogenase [NADP] cytoplasmic (Homo sapiens, UniProt O75874) (O75874 whole entry): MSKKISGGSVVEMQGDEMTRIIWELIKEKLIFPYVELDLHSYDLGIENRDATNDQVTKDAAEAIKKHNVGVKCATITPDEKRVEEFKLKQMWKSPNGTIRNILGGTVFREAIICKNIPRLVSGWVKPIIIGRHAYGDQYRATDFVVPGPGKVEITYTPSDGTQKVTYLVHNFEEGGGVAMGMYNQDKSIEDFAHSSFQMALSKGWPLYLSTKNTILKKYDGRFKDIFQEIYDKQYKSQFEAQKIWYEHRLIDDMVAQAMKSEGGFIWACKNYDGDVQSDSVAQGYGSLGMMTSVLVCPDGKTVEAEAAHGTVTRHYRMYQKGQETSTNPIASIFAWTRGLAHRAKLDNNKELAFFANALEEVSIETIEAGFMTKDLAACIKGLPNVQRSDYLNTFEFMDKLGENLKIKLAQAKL
The species named for data set [11] is Homo sapiens. In words: Selectivity ratio of IC50 for IDH1 (unknown origin) to IC50 for […] (unknown origin).
Data set [12] concerns the target Isocitrate dehydrogenase [NADP], mitochondrial (Homo sapiens, UniProt P48735, R140Q). Nature of the data set: Inhibition of IDH2 R140Q mutant (unknown origin) using alpha-ketoglutarate as substrate pretreated for 60 mins followed by substrate addition measured after 60 mins by resazurin dye based fluorescence assay.
The test system of data set [13] is Mus musculus. In words: AUC in ICR mouse at 1 mg/kg, iv by HPLC-MS analysis. In kind it is ADME, organism-based. Conditions: in vivo.

Sequence of Isocitrate dehydrogenase [NADP] cytoplasmic (Homo sapiens, UniProt O75874, R132H) (O75874 2-414 R132H limits assumed): as the sequence (O75874 2-414 R132C limits assumed) above, with C131H counted along it
Sequence of Isocitrate dehydrogenase [NADP], mitochondrial (P48735 40-452 R140Q limits assumed): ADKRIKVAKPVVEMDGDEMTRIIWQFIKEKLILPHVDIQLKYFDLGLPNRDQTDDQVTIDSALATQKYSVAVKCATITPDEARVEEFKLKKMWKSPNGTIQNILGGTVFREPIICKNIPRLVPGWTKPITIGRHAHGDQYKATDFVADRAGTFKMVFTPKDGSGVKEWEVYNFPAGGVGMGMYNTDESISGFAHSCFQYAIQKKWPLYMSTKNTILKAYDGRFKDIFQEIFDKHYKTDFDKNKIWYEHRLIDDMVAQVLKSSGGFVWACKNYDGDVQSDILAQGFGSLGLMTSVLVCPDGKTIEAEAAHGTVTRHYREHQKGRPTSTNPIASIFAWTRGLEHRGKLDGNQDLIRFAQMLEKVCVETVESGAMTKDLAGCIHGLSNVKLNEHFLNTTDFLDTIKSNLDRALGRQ

For orientation: IC50 means the concentration at which inhibition is half-maximal. As for `N#Cc1ccnc(N2C(=O)CC[C@H]2C(=O)N(c2ccccc2)[C@@]2(C(=O)NC3CC(F)(F)C3)CCc3ccccc32)c1`, half-maximal inhibition in data set [1] (IC50) was put at 260 nM.
In turn, `N#Cc1ccnc(N2C(=O)CC[C@H]2C(=O)N(c2cccc(F)c2F)[C@@]2(C(=O)NC3CC(F)(F)C3)CCc3ccccc32)c1` gave an IC50 in data set [1] of 148 nM.
In data set [1], `N#Cc1ccnc(N2C(=O)CC[C@H]2C(=O)N(c2ccc(Cl)c(F)c2)[C@@]2(C(=O)NC3CC(F)(F)C3)CCc3ccccc32)c1` yielded an IC50 of 186 nM.
Consider `N#Cc1ccnc(N2C(=O)CC[C@H]2C(=O)N(c2cccc(F)c2)[C@@]2(C(=O)NC3CC(F)(F)C3)CCc3c(F)cccc32)c1`, for which the IC50 worked out at 68 nM in data set [1] and 27 nM in data set [2].
On to `N#Cc1ccnc(N2C(=O)OC[C@H]2C(=O)N(c2cc(F)cc(F)c2)[C@@]2(C(=O)NC3CC(F)(F)C3)CCc3ccccc32)n1`, for which the IC50 in data set [1] worked out at 40 nM; in data set [2], 308 nM.
Turning to `N#Cc1ccnc(N2C(=O)CC[C@H]2C(=O)N(c2cccc(F)c2)[C@@]2(C(=O)Nc3ccccc3)CCc3ccccc32)c1`, the IC50 in [1] was > 1000 nM.
Compound `CS(=O)(=O)c1ccnc(N2C(=O)CC[C@H]2C(=O)N(c2cc(F)cc(F)c2)[C@@]2(C(=O)NC3CC(F)(F)C3)CCc3ccccc32)c1` returned an IC50 in [1] of 2960 nM.
In the case of `N#Cc1ccnc(N2C(=O)CC[C@@H]2C(=O)N(c2cccc(F)c2)[C@@]2(C(=O)NC3CC(F)(F)C3)CCc3ccccc32)c1`, in data set [1], the IC50 is > 10000 nM.
Regarding `N#Cc1ccnc(N2C(=O)CC[C@H]2C(=O)N(c2cc(F)cc(F)c2)[C@@]2(C(=O)NC3CC(F)(F)C3)CCc3c(Cl)cccc32)c1`, the IC50 in [1] was found to be 53 nM; in data set [2] it was 14 nM.
With `N#Cc1ccnc(N2C(=O)OC[C@H]2C(=O)N(c2cc(F)cc(F)c2)[C@@]2(C(=O)NC3CC(F)(F)C3)CCc3ccccc32)c1`, the IC50 was determined as 54 nM in data set [1] and 8.9 nM in data set [2].
With `N#Cc1ccnc(N2C(=O)CC[C@H]2C(=O)N(c2cccc(F)c2)[C@@]2(C(=O)NC3CC(F)(F)C3)CCc3ccccc32)c1`, the IC50 worked out at 85 nM in data set [1] and 25 nM in [2]. Also, the CLH in data set [3] came out at 54.1 mL/min; in data set [4] it was 3.7 mL/min.
As to `N#Cc1ccnc(N2C(=O)CC[C@H]2C(=O)N(c2cccc(F)c2)[C@@]2(C(=O)NC3CC(F)(F)C3)CCc3ccc(F)cc32)c1`, the IC50 in data set [1] is 138 nM.
`N#Cc1ccnc(N2C(=O)CC[C@H]2C(=O)N(c2cccc(F)c2)[C@@]2(C(=O)NC3CC(F)(F)C3)CCc3cc(F)ccc32)c1`: in data set [1], it took 108 nM to reach half-maximal inhibition (IC50).
Regarding `N#Cc1ccnc(N2C(=O)OC[C@H]2C(=O)N(c2cccc(F)c2)[C@@]2(C(=O)NC3CC(F)(F)C3)CCc3cccc(Cl)c32)n1`, the IC50 in data set [1] was determined as 5.6 nM; in data set [2], 29 nM.
Take `N#Cc1ccnc(N2C(=O)CC[C@H]2C(=O)N(c2cc(F)ccc2F)[C@@]2(C(=O)NC3CC(F)(F)C3)CCc3ccccc32)c1`: the IC50 in [1] was 338 nM.
On the same count and under the same terms, for `COc1ccnc(N2C(=O)CC[C@H]2C(=O)N(c2cc(F)cc(F)c2)[C@@]2(C(=O)NC3CC(F)(F)C3)CCc3ccccc32)c1` the value was > 10000 nM.
On to `O=C1CC[C@@H](C(=O)N(c2cc(F)cc(F)c2)[C@@]2(C(=O)NC3CC(F)(F)C3)CCc3ccccc32)N1c1cnccn1`, for which half-maximal inhibition in data set [1] (IC50) required 128 nM.
On the same count and under the same terms, to `N#Cc1ccnc(N2C(=O)CC[C@H]2C(=O)N(c2cc(F)cc(Cl)c2)[C@@]2(C(=O)NC3CC(F)(F)C3)CCc3ccccc32)c1` belongs 172 nM.
In the case of `N#Cc1ccnc(N2C(=O)CC[C@H]2C(=O)N(c2cccc(Cl)c2)[C@@]2(C(=O)NC3CC(F)(F)C3)CCc3ccccc32)c1`, half-maximal inhibition in [1] (IC50) was put at 255 nM.
With `N#Cc1ccnc(N2C(=O)CC[C@H]2C(=O)N(c2cncc(F)c2)[C@@]2(C(=O)NC3CC(F)(F)C3)CCCc3ccccc32)c1`, in [1], the IC50 was found to be 275 nM.
For `O=C1CC[C@@H](C(=O)N(c2cc(F)cc(F)c2)[C@@]2(C(=O)NC3CC(F)(F)C3)CCc3ccccc32)N1c1ccccn1`, the IC50 in [1] was > 10000 nM.
On the same count and under the same terms, for `N#Cc1ccnc(N2C(=O)CC[C@H]2C(=O)N(c2cncc(F)c2)[C@@]2(C(=O)NC3CC(F)(F)C3)Cc3ccccc32)c1` the value was 270 nM.
For `N#Cc1ccnc(N2C(=O)CC[C@H]2C(=O)N(c2cccc(F)c2)[C@@]2(C(=O)NCC3CCC(F)(F)CC3)CCc3ccccc32)c1`, the IC50 in [1] came to 80 nM; in data set [2], 15 nM. Also, the figures for the CLH in data set [3] and in data set [4] were 567 mL/min and 24 mL/min, respectively.
`N#Cc1ccnc(N2C(=O)CC[C@H]2C(=O)N(c2ccc(F)c(F)c2)[C@@]2(C(=O)NC3CC(F)(F)C3)CCc3ccccc32)c1` showed an IC50 in [1] of 95 nM.
Consider `N#Cc1ccnc(N2C(=O)OC[C@H]2C(=O)N(c2cccc(F)c2)[C@@]2(C(=O)NC3CC(F)(F)C3)CCc3cccc(Cl)c32)c1`, for which the IC50 in data set [1] worked out at 42 nM; in data set [2] it was 9 nM.
Turning to `N#Cc1ccnc(N2C(=O)CC[C@H]2C(=O)N(c2cncc(F)c2)[C@@]2(C(=O)NC3CC(F)(F)C3)CCc3ccccc32)c1`, the IC50 came out at 94 nM in data set [1] and 21 nM in [2].
`N#Cc1ccnc(N2C(=O)CC[C@H]2C(=O)N(c2cccc(F)c2)[C@@]2(C(=O)NC3CCCCC3)CCc3ccccc32)c1`: the IC50 in data set [1] was 37 nM; in data set [2] it was < 10 nM. The values for the CLH in data set [3] and in [4] were 2359 mL/min and 1145 mL/min, respectively.
In the case of `N#Cc1ccnc(N2C(=O)OC[C@H]2C(=O)N(c2cccc(F)c2)[C@@]2(C(=O)NC3CC(F)(F)C3)CCc3ccccc32)c1`, the values for the half-inhibitory concentration (IC50) in [1] and in data set [2] were 58 nM and 19 nM, respectively.
For the compound `N#Cc1ccnc(N2C(=O)CC[C@H]2C(=O)N(c2cccc(F)c2)[C@@]2(C(=O)NC3CCOCC3)CCc3ccccc32)c1`, the IC50 in data set [1] was > 1000 nM.
On to `N#Cc1ccnc(N2C(=O)CC[C@H]2C(=O)N(c2cc(F)cc(F)c2)[C@@]2(C(=O)NC3CC(F)(F)C3)CCc3cccc(Cl)c32)c1`, for which the midpoint of inhibition in data set [1], the IC50, lay at 180 nM.
In general, clearance refers to the rate of elimination divided by the concentration. The term AUC denotes concentration integrated over time. Low readings indicate less exposure, high ones more exposure. For `N#Cc1ccnc(N2C(=O)CC[C@H]2C(=O)N(c2cccc(F)c2)[C@@]2(C(=O)NC3CC(F)(F)C3)CCc3cc(Cl)ccc32)c1`, the IC50 in data set [1] is 49 nM; in [10], 1780 nM; in [2], 7.5 nM; in [12] it was > 100 nM. For the same compound, the clearance in [5] was 20 mL/min/kg. The AUC in the data set on Mus musculus [6] came out at 3780 ng·h/mL; with Mus musculus [13], 834 ng·h/mL. For the same compound, the Ratio IC50 was > 2040 in the data set filed under Homo sapiens [7] and 36 in the data set listed under Homo sapiens [11]. The Vd in [8] stood at 1.9 L. In the data set with Mus musculus [9], this compound displayed an F of 38%.
As to `N#Cc1ccnc(N2CCC[C@H]2C(=O)N(c2cccc(F)c2)[C@@]2(C(=O)NC3CC(F)(F)C3)CCc3ccccc32)c1`, in data set [1], the IC50 is 635 nM.
Take `N#Cc1cccc(N2C(=O)CC[C@H]2C(=O)N(c2cc(F)cc(F)c2)[C@@]2(C(=O)NC3CC(F)(F)C3)CCc3ccccc32)c1`: it took 2610 nM to reach half-maximal inhibition in data set [1] (IC50).
`N#Cc1ccnc(N2C(=O)CC[C@H]2C(=O)N(c2cc(F)cc(F)c2)[C@@]2(C(=O)NC3CC(F)(F)C3)CCc3ccccc32)n1`: the IC50 is 22 nM in [1] and 14.9 nM in data set [2].
Compound `N#Cc1ccnc(N2C(=O)CC[C@H]2C(=O)N(c2cccc(F)c2)[C@@]2(C(=O)NCC3CC3)CCc3ccccc32)c1` showed an IC50 in data set [1] of 266 nM.
In the case of `N#Cc1ccnc(N2C(=O)CC[C@H]2C(=O)N(c2cc(F)cc(F)c2)[C@@]2(C(=O)NC3CC(F)(F)C3)CCc3ccccc32)c1`, the IC50 in data set [1] is 45 nM; in [10], 3560 nM; in data set [2], 5 nM; in data set [12], > 100 nM. This compound had a clearance in [5] of 8.33 mL/min/kg. Moreover, the AUC in the data set with Mus musculus [6] stood at 3620 ng·h/mL; in the data set with Mus musculus [13], 1984 ng·h/mL. Besides, the Ratio IC50 in the data set filed under Homo sapiens [7] is > 2200; in the data set filed under Homo sapiens [11], 79. Besides, in data set [8], the Vd came to 1 L. Also, the F with Mus musculus [9] was found to be 87%.
`N#Cc1ccnc(N2C(=O)CC[C@H]2C(=O)N(c2cccc(F)c2)[C@@]2(C(=O)NC3CC(F)(F)C3)CCc3cccc(F)c32)c1`: the IC50 is 51 nM in data set [1] and 52 nM in data set [2].
Consider `N#Cc1ccnc(N2C(=O)CC[C@H]2C(=O)N(c2cccc(F)c2)[C@@]2(C(=O)NC3CC(F)(F)C3)CCc3cccc(Cl)c32)n1`, for which the IC50 in [1] worked out at 22 nM; in data set [2] it was 42 nM.
Consider `N#Cc1ccnc(N2C(=O)CC[C@H]2C(=O)N(c2cccc(F)c2)[C@@]2(C(=O)NC3CC(F)(F)C3)CCc3c(Cl)cccc32)c1`, for which the IC50 in [1] was 67 nM; in data set [2] it was 21 nM.
